Test results published in patent US20250147039A1, “Compounds for complexation of rare earth elements and/or s-, p-, d- block metals, their coordination compounds, peptide conjugates, method of their preparation and use thereof” (USTAV ORGANICKE CHEMIE A BIOCHEMIE AV CR V.V.I., priority 2021, published 2025).

How the values were obtained:
[1] = Formation of 1,5-cz-[M(Lig)] from Lig and M^III ions (metal dependent click-zip) (Charts 4, 5); format: physicochemical; conditions: MOPS/NaOH buffer pH 7.0, TD728, TD827 in 50% i-PrOH; for conversion to 1,5-cz-[M(Lig)], Y^III: TD714 sum of two diastereoisomers
[2] = Formation of 1,5-cz-[Ln(Lig)] from Lig and Ln^III ions (metal dependent click-zip), MOPS/NaOH buffer pH 7.0, analytical HPLC (Charts 1, 2); conditions: 50% i-PrOH in aq. MOPS/NaOH Buffer pH 7.0

**Q.** For `C#Cc1cccc(CN2CCN(CC(=O)O)CCN(Cc3cc(C#C[Si](C(C)C)(C(C)C)C(C)C)cc(CN=[N+]=[N-])n3)CCN(CC(=O)O)CC2)n1` [TD827], which “conversion to 1,5-cz-[M(Lig)], Sc^III” value ([1]; 1 week at 80° C.) is on record?
**A.** Its value is 55%.

**Q.** And the “conversion to 1,5-cz-[M(Lig)], Y^III” value ([1]; 1 week at 80° C.)?
**A.** The value was 96%.

**Q.** And the “conversion to 1,5-cz-[M(Lig)], Sc^III” value ([1]; 1 hour at 80° C.)?
**A.** Its value is 2%.

**Q.** What about the “conversion to 1,5-cz-[M(Lig)], Y^III” value ([1]; 1 hour at 80° C.) of the same compound?
**A.** The value was 42%.

**Q.** What about the “conversion to 1,5-cz-[Ln(Lig)], Ce^III” value ([2]; after 1 week at 80° C.) of the same compound?
**A.** Its value is 22%.

**Q.** What about the “conversion to 1,5-cz-[Ln(Lig)], Ce^III” value ([2]; after 1 hour at 80° C.) of the same compound?
**A.** The value was 2%.

**Q.** And the “conversion to 1,5-cz-[Ln(Lig)], Dy^III” value ([2]; after 1 week at 80° C.)?
**A.** The value was 96%.

**Q.** And the “conversion to 1,5-cz-[Ln(Lig)], Dy^III” value ([2]; after 1 hour at 80° C.)?
**A.** Its value is 30%.

**Q.** What about the “conversion to 1,5-cz-[Ln(Lig)], Er^III” value ([2]; after 1 week at 80° C.) of the same compound?
**A.** Its value is 96%.

**Q.** What about the “conversion to 1,5-cz-[Ln(Lig)], Er^III” value ([2]; after 1 hour at 80° C.) of the same compound?
**A.** The value was 56%.

**Q.** And the “conversion to 1,5-cz-[Ln(Lig)], Eu^III” value ([2]; after 1 week at 80° C.)?
**A.** The value was 92%.

**Q.** What about the “conversion to 1,5-cz-[Ln(Lig)], Eu^III” value ([2]; after 1 hour at 80° C.) of the same compound?
**A.** The value was 9%.

**Q.** And the “conversion to 1,5-cz-[Ln(Lig)], Gd^III” value ([2]; after 1 week at 80° C.)?
**A.** Its value is 93%.

**Q.** What about the “conversion to 1,5-cz-[Ln(Lig)], Gd^III” value ([2]; after 1 hour at 80° C.) of the same compound?
**A.** The value was 11%.

**Q.** And the “conversion to 1,5-cz-[Ln(Lig)], Ho^III” value ([2]; after 1 week at 80° C.)?
**A.** The value was 96%.

**Q.** And the “conversion to 1,5-cz-[Ln(Lig)], Ho^III” value ([2]; after 1 hour at 80° C.)?
**A.** Its value is 43%.

**Q.** What about the “conversion to 1,5-cz-[Ln(Lig)], La^III” value ([2]; after 1 week at 80° C.) of the same compound?
**A.** The value was 46%.

**Q.** What about the “conversion to 1,5-cz-[Ln(Lig)], La^III” value ([2]; after 1 hour at 80° C.) of the same compound?
**A.** The value was 1%.

**Q.** And the “conversion to 1,5-cz-[Ln(Lig)], Lu^III” value ([2]; after 1 week at 80° C.)?
**A.** Its value is 97%.

**Q.** And the “conversion to 1,5-cz-[Ln(Lig)], Lu^III” value ([2]; after 1 hour at 80° C.)?
**A.** Its value is 77%.

**Q.** What about the “conversion to 1,5-cz-[Ln(Lig)], Nd^III” value ([2]; after 1 week at 80° C.) of the same compound?
**A.** Its value is 84%.

**Q.** What about the “conversion to 1,5-cz-[Ln(Lig)], Nd^III” value ([2]; after 1 hour at 80° C.) of the same compound?
**A.** Its value is 3%.

**Q.** What about the “conversion to 1,5-cz-[Ln(Lig)], Pr^III” value ([2]; after 1 week at 80° C.) of the same compound?
**A.** Its value is 79%.

**Q.** What about the “conversion to 1,5-cz-[Ln(Lig)], Pr^III” value ([2]; after 1 hour at 80° C.) of the same compound?
**A.** The value was 2%.

**Q.** And the “conversion to 1,5-cz-[Ln(Lig)], Sm^III” value ([2]; after 1 week at 80° C.)?
**A.** The value was 91%.

**Q.** And the “conversion to 1,5-cz-[Ln(Lig)], Sm^III” value ([2]; after 1 hour at 80° C.)?
**A.** Its value is 7%.

**Q.** What about the “conversion to 1,5-cz-[Ln(Lig)], Tb^III” value ([2]; after 1 week at 80° C.) of the same compound?
**A.** Its value is 95%.

**Q.** What about the “conversion to 1,5-cz-[Ln(Lig)], Tb^III” value ([2]; after 1 hour at 80° C.) of the same compound?
**A.** The value was 21%.

**Q.** What about the “conversion to 1,5-cz-[Ln(Lig)], Tm^III” value ([2]; after 1 week at 80° C.) of the same compound?
**A.** The value was 97%.

**Q.** And the “conversion to 1,5-cz-[Ln(Lig)], Tm^III” value ([2]; after 1 hour at 80° C.)?
**A.** The value was 68%.

**Q.** And the “conversion to 1,5-cz-[Ln(Lig)], Yb^III” value ([2]; after 1 week at 80° C.)?
**A.** Its value is 97%.

**Q.** And the “conversion to 1,5-cz-[Ln(Lig)], Yb^III” value ([2]; after 1 hour at 80° C.)?
**A.** Its value is 75%.
